Source: US7161032B2, “Sulfonamide derivatives, insecticides for agricultural and horticultural use, and usage thereof” (Nihon Nohyaku Co., Ltd., priority 2002, dated 2007)

Key:
Type in all cases: in vivo
[1] = test system: Smaller Tea Tortrix (Adoxophyes sp.); assay: Insecticidal effect on smaller tea tortrix (Test Example 3): tea leaves immersed in 50 ppm liquid chemical; conditions: smaller tea tortrix (Adoxophyes sp.) larvae, 8 days after inoculation, 25° C., humidity 70%
Outline: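 Tea leaves dipped about 30 seconds in 50 ppm compound preparation, air-dried, then infested with larvae and held at 25° C and 70% humidity. Dead and alive counted 8 days after inoculation; triplicate groups of 10 insects.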

[2] = test system: Diamond Back Moth (Plutella xylostella); assay: Insecticidal effect on diamond back moth (Test Example 1): egg-bearing Chinese cabbage seedling immersed in 50 ppm liquid chemical
Outline: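 Seedlings bearing 2-day-old eggs dipped about 30 s in 50 ppm formulated compound, air-dried, held at 25° C. Hatched larvae counted 6 days after immersion; mortality calculated and graded by criterion. Triplicate groups of 10 insects.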

[3] = test system: Common Cutworm (Spodoptera litura); assay: Insecticidal effect on common cutworm (Test Example 2): cabbage leaf piece immersed in 50 ppm liquid chemical; conditions: common cutworm (Spodoptera litura) second-instar larvae, 8 days after inoculation, 25° C.
Outline: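 Cabbage leaf pieces (cv. Shikidori) dipped ~30 s in formulated compound at 50 ppm and air-dried. Second-instar larvae added, kept at 25° C. Dead and alive counted at 8 days to give % mortality, scored against a criterion scale; three groups of 10 insects.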

Structure (SMILES): Cc1cc(C(F)(C(F)(F)F)C(F)(F)F)ccc1NC(=O)c1cccc(I)c1C(=O)NC(C)CS(=O)(=O)NCc1cccc(C#N)c1 (stereo not drawn) [1-31]
- Insecticidal effect (mortality grade), Test Example 3 [1]: A (Mortality 100%)
- Insecticidal effect (mortality grade), Test Example 1 [2]: A (Mortality 100%)
- Insecticidal effect (mortality grade), Test Example 2 [3]: A (Mortality 100%)

Structure (SMILES): Cc1cc(C(F)(C(F)(F)F)C(F)(F)F)ccc1NC(=O)c1cccc(I)c1C(=O)NC(C)CS(=O)(=O)Nc1ccccc1F (stereo not drawn) [1-107]
- Insecticidal effect (mortality grade), Test Example 3 [1]: A (Mortality 100%)
- Insecticidal effect (mortality grade), Test Example 1 [2]: A (Mortality 100%)
- Insecticidal effect (mortality grade), Test Example 2 [3]: C (Mortality 89–80%)

Structure (SMILES): C=CCNS(=O)(=O)CC(C)NC(=O)c1c(I)cccc1C(=O)Nc1ccc(C(F)(C(F)(F)F)C(F)(F)F)cc1C (stereo not drawn) [1-20]
- Insecticidal effect (mortality grade), Test Example 3 [1]: A (Mortality 100%)
- Insecticidal effect (mortality grade), Test Example 1 [2]: A (Mortality 100%)
- Insecticidal effect (mortality grade), Test Example 2 [3]: A (Mortality 100%)

Structure (SMILES): Cc1cc(C(F)(C(F)(F)F)C(F)(F)F)ccc1NC(=O)c1cccc(I)c1C(=O)NC(C)CS(=O)(=O)NCc1ccccn1 (stereo not drawn) [1-39]
- Insecticidal effect (mortality grade), Test Example 3 [1]: A (Mortality 100%)
- Insecticidal effect (mortality grade), Test Example 1 [2]: A (Mortality 100%)
- Insecticidal effect (mortality grade), Test Example 2 [3]: A (Mortality 100%)

Structure (SMILES): Cc1cc(C(F)(C(F)(F)F)C(F)(F)F)ccc1NC(=O)c1cccc(Br)c1C(=O)NC(C)CS(=O)(=O)N(C)C (stereo not drawn) [1-213]
- Insecticidal effect (mortality grade), Test Example 3 [1]: A (Mortality 100%)
- Insecticidal effect (mortality grade), Test Example 1 [2]: A (Mortality 100%)
- Insecticidal effect (mortality grade), Test Example 2 [3]: A (Mortality 100%)

Structure (SMILES): CCN(CC)S(=O)(=O)CC(C)(C)NC(=O)c1c(I)cccc1C(=O)Nc1ccc(Cl)c(Cl)c1Cl [1-268]
- Insecticidal effect (mortality grade), Test Example 3 [1]: A (Mortality 100%)
- Insecticidal effect (mortality grade), Test Example 1 [2]: A (Mortality 100%)
- Insecticidal effect (mortality grade), Test Example 2 [3]: A (Mortality 100%)

Structure (SMILES): CCN(CC)S(=O)(=O)CC(C)(C)NC(=O)c1c(Br)cccc1C(=O)Nc1ccc(C(F)(C(F)(F)F)C(F)(F)F)cc1C [1-219]
- Insecticidal effect (mortality grade), Test Example 3 [1]: A (Mortality 100%)
- Insecticidal effect (mortality grade), Test Example 1 [2]: A (Mortality 100%)
- Insecticidal effect (mortality grade), Test Example 2 [3]: A (Mortality 100%)

Structure (SMILES): Cc1cc(C(F)(C(F)(F)F)C(F)(F)F)ccc1NC(=O)c1cccc(I)c1C(=O)NC(C)CS(=O)(=O)NCc1ccccc1 (stereo not drawn) [1-22]
- Insecticidal effect (mortality grade), Test Example 3 [1]: A (Mortality 100%)
- Insecticidal effect (mortality grade), Test Example 1 [2]: A (Mortality 100%)
- Insecticidal effect (mortality grade), Test Example 2 [3]: A (Mortality 100%)

Structure (SMILES): CSCCNS(=O)(=O)CC(C)(C)NC(=O)c1c(I)cccc1C(=O)Nc1ccc(C(F)(C(F)(F)F)C(F)(F)F)cc1C [1-81]
- Insecticidal effect (mortality grade), Test Example 3 [1]: A (Mortality 100%)
- Insecticidal effect (mortality grade), Test Example 1 [2]: A (Mortality 100%)
- Insecticidal effect (mortality grade), Test Example 2 [3]: A (Mortality 100%)

Structure (SMILES): Cc1cc(C(F)(C(F)(F)F)C(F)(F)F)ccc1NC(=O)c1cccc(I)c1C(=O)NC(C)CS(=O)(=O)N[C@H](C)c1ccccc1 (stereo partly drawn) [1-45]
- Insecticidal effect (mortality grade), Test Example 3 [1]: A (Mortality 100%)
- Insecticidal effect (mortality grade), Test Example 1 [2]: A (Mortality 100%)
- Insecticidal effect (mortality grade), Test Example 2 [3]: A (Mortality 100%)

Structure (SMILES): CONS(=O)(=O)CC(C)NC(=O)c1c(I)cccc1C(=O)Nc1ccc(C(F)(C(F)(F)F)C(F)(F)F)cc1C (stereo not drawn) [1-116]
- Insecticidal effect (mortality grade), Test Example 3 [1]: A (Mortality 100%)
- Insecticidal effect (mortality grade), Test Example 1 [2]: A (Mortality 100%)
- Insecticidal effect (mortality grade), Test Example 2 [3]: D (Mortality 79–50%)

Structure (SMILES): Cc1cc(C(F)(C(F)(F)F)C(F)(F)F)ccc1NC(=O)c1cccc(I)c1C(=O)NC(C)CS(=O)(=O)NCCO (stereo not drawn) [1-72]
- Insecticidal effect (mortality grade), Test Example 3 [1]: A (Mortality 100%)
- Insecticidal effect (mortality grade), Test Example 1 [2]: A (Mortality 100%)
- Insecticidal effect (mortality grade), Test Example 2 [3]: A (Mortality 100%)

Structure (SMILES): CCN(CC)S(=O)(=O)CC(C)NC(=O)c1c(I)cccc1C(=O)Nc1ccc(OC(F)(F)F)cc1Cl (stereo not drawn) [1-285]
- Insecticidal effect (mortality grade), Test Example 3 [1]: E (Mortality less than 50%)
- Insecticidal effect (mortality grade), Test Example 1 [2]: A (Mortality 100%)
- Insecticidal effect (mortality grade), Test Example 2 [3]: C (Mortality 89–80%)

Structure (SMILES): COc1cccc(OC)c1CNS(=O)(=O)CC(C)NC(=O)c1c(I)cccc1C(=O)Nc1ccc(C(F)(C(F)(F)F)C(F)(F)F)cc1C (stereo not drawn) [1-32]
- Insecticidal effect (mortality grade), Test Example 3 [1]: A (Mortality 100%)
- Insecticidal effect (mortality grade), Test Example 1 [2]: A (Mortality 100%)
- Insecticidal effect (mortality grade), Test Example 2 [3]: A (Mortality 100%)

Structure (SMILES): Cc1cc(C(F)(F)C(F)(F)F)ccc1NC(=O)c1cccc(I)c1C(=O)NC(C)(C)CS(=O)(=O)NCCSc1ccccc1 [1-310]
- Insecticidal effect (mortality grade), Test Example 3 [1]: A (Mortality 100%)
- Insecticidal effect (mortality grade), Test Example 1 [2]: A (Mortality 100%)
- Insecticidal effect (mortality grade), Test Example 2 [3]: A (Mortality 100%)

Structure (SMILES): CNS(=O)(=O)CC(C)NC(=O)c1c(I)cccc1C(=O)Nc1ccc(C(F)(C(F)(F)F)C(F)(F)F)cc1C (stereo not drawn) [1-2]
- Insecticidal effect (mortality grade), Test Example 3 [1]: A (Mortality 100%)
- Insecticidal effect (mortality grade), Test Example 1 [2]: A (Mortality 100%)
- Insecticidal effect (mortality grade), Test Example 2 [3]: A (Mortality 100%)

Structure (SMILES): CCN(CC)S(=O)(=O)CC(C)NC(=O)c1c(I)cccc1C(=O)Nc1ccc(C(F)(C(F)(F)F)C(F)(F)F)cc1C (stereo not drawn) [1-144]
- Insecticidal effect (mortality grade), Test Example 3 [1]: A (Mortality 100%)
- Insecticidal effect (mortality grade), Test Example 1 [2]: A (Mortality 100%)
- Insecticidal effect (mortality grade), Test Example 2 [3]: A (Mortality 100%)

Structure (SMILES): Cc1cc(C(F)(C(F)(F)F)C(F)(F)F)ccc1NC(=O)c1cccc(I)c1C(=O)NC(C)CS(=O)(=O)NCc1ccc(C#N)cc1 (stereo not drawn) [1-37]
- Insecticidal effect (mortality grade), Test Example 3 [1]: A (Mortality 100%)
- Insecticidal effect (mortality grade), Test Example 1 [2]: A (Mortality 100%)
- Insecticidal effect (mortality grade), Test Example 2 [3]: A (Mortality 100%)

Structure (SMILES): Cc1cc(C(F)(C(F)(F)F)C(F)(F)F)ccc1NC(=O)c1cccc(I)c1C(=O)NC(C)(C)CS(=O)(=O)NCCS(=O)(=O)c1ccccc1 [1-89]
- Insecticidal effect (mortality grade), Test Example 3 [1]: A (Mortality 100%)
- Insecticidal effect (mortality grade), Test Example 1 [2]: A (Mortality 100%)
- Insecticidal effect (mortality grade), Test Example 2 [3]: A (Mortality 100%)

Structure (SMILES): Cc1cc(C(F)(C(F)(F)F)C(F)(F)F)ccc1NC(=O)c1cccc(I)c1C(=O)NC(C)CS(=O)(=O)NCc1cccc([N+](=O)[O-])c1 (stereo not drawn) [1-30]
- Insecticidal effect (mortality grade), Test Example 3 [1]: A (Mortality 100%)
- Insecticidal effect (mortality grade), Test Example 1 [2]: A (Mortality 100%)
- Insecticidal effect (mortality grade), Test Example 2 [3]: A (Mortality 100%)

Structure (SMILES): CCN(CC)S(=O)(=O)CC(C)(C)NC(=O)c1c(I)cccc1C(=O)Nc1ccc(C(C(F)(F)F)C(F)(F)F)cc1C [1-344]
- Insecticidal effect (mortality grade), Test Example 3 [1]: A (Mortality 100%)
- Insecticidal effect (mortality grade), Test Example 1 [2]: A (Mortality 100%)
- Insecticidal effect (mortality grade), Test Example 2 [3]: A (Mortality 100%)

Structure (SMILES): Cc1cc(C(F)(C(F)(F)F)C(F)(F)F)ccc1NC(=O)c1cccc(I)c1C(=O)NC(C)CS(=O)(=O)N1CCOCC1 (stereo not drawn) [1-54]
- Insecticidal effect (mortality grade), Test Example 3 [1]: A (Mortality 100%)
- Insecticidal effect (mortality grade), Test Example 1 [2]: A (Mortality 100%)
- Insecticidal effect (mortality grade), Test Example 2 [3]: A (Mortality 100%)

Structure (SMILES): Cc1cc(C(F)(C(F)(F)F)C(F)(F)F)ccc1NC(=O)c1cccc(I)c1C(=O)N[C@@H](C)CS(=O)(=O)NCc1ccccc1 [1-146]
- Insecticidal effect (mortality grade), Test Example 3 [1]: A (Mortality 100%)
- Insecticidal effect (mortality grade), Test Example 1 [2]: A (Mortality 100%)
- Insecticidal effect (mortality grade), Test Example 2 [3]: A (Mortality 100%)

Structure (SMILES): CCN(CC)S(=O)(=O)CC(C)(C)NC(=O)c1c(I)cccc1C(=O)Nc1ccc(OC(F)(F)F)cc1Cl [1-286]
- Insecticidal effect (mortality grade), Test Example 3 [1]: E (Mortality less than 50%)
- Insecticidal effect (mortality grade), Test Example 1 [2]: A (Mortality 100%)
- Insecticidal effect (mortality grade), Test Example 2 [3]: A (Mortality 100%)

Structure (SMILES): Cc1cc(C(F)(C(F)(F)F)C(F)(F)F)ccc1NC(=O)c1cccc(I)c1C(=O)NC(C)(C)CS(=O)(=O)N1CC[S+]([O-])CC1C (stereo not drawn) [1-62]
- Insecticidal effect (mortality grade), Test Example 3 [1]: A (Mortality 100%)
- Insecticidal effect (mortality grade), Test Example 1 [2]: A (Mortality 100%)
- Insecticidal effect (mortality grade), Test Example 2 [3]: A (Mortality 100%)

Structure (SMILES): CSCC(C)NS(=O)(=O)CC(C)NC(=O)c1c(I)cccc1C(=O)Nc1ccc(C(F)(C(F)(F)F)C(F)(F)F)cc1C (stereo not drawn) [1-91]
- Insecticidal effect (mortality grade), Test Example 3 [1]: A (Mortality 100%)
- Insecticidal effect (mortality grade), Test Example 1 [2]: A (Mortality 100%)
- Insecticidal effect (mortality grade), Test Example 2 [3]: A (Mortality 100%)

Structure (SMILES): Cc1cc(C(F)(C(F)(F)F)C(F)(F)F)ccc1NC(=O)c1cccc(I)c1C(=O)NC(C)(C)CS(=O)(=O)N1CCSCC1C (stereo not drawn) [1-61]
- Insecticidal effect (mortality grade), Test Example 3 [1]: A (Mortality 100%)
- Insecticidal effect (mortality grade), Test Example 1 [2]: A (Mortality 100%)
- Insecticidal effect (mortality grade), Test Example 2 [3]: A (Mortality 100%)

Structure (SMILES): CCS(=O)(=O)CCNS(=O)(=O)CC(C)(C)NC(=O)c1c(I)cccc1C(=O)Nc1ccc(C(F)(C(F)(F)F)C(F)(F)F)cc1C [1-86]
- Insecticidal effect (mortality grade), Test Example 3 [1]: A (Mortality 100%)
- Insecticidal effect (mortality grade), Test Example 1 [2]: A (Mortality 100%)
- Insecticidal effect (mortality grade), Test Example 2 [3]: A (Mortality 100%)

Structure (SMILES): Cc1cc(C(F)(C(F)(F)F)C(F)(F)F)ccc1NC(=O)c1cccc(I)c1C(=O)NC(C)CS(=O)(=O)NCc1ccc([N+](=O)[O-])cc1 (stereo not drawn) [1-36]
- Insecticidal effect (mortality grade), Test Example 3 [1]: A (Mortality 100%)
- Insecticidal effect (mortality grade), Test Example 1 [2]: A (Mortality 100%)
- Insecticidal effect (mortality grade), Test Example 2 [3]: A (Mortality 100%)

Structure (SMILES): Cc1cc(C(F)(C(F)(F)F)C(F)(F)F)ccc1NC(=O)c1cccc(I)c1C(=O)NC(C)CS(N)(=O)=O (stereo not drawn) [1-1]
- Insecticidal effect (mortality grade), Test Example 3 [1]: A (Mortality 100%)
- Insecticidal effect (mortality grade), Test Example 1 [2]: A (Mortality 100%)
- Insecticidal effect (mortality grade), Test Example 2 [3]: A (Mortality 100%)
